Results from PubChem BioAssay (NCI).
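These data come from cells grown in 96-well plates and exposed to compound for 48 hours at five concentrations. At the TGI there is no net growth.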

How the values were obtained:
Experiment in all cases: NCI tumour cell line growth inhibition, 48 h
[1] = test system: HOP-92 NSCLC
[2] = test system: TK-10 renal
[3] = test system: HOP-62 NSCLC
[4] = test system: MCF7 breast
[5] = test system: NCI-H226 lung
[6] = test system: A549 NSCLC
[7] = test system: BT-549 breast
[8] = test system: MOLT-4 leukemia
[9] = test system: UO-31 renal
[10] = test system: OVCAR-3 ovarian
[11] = test system: LOX IMVI melanoma
[12] = test system: SNB-19 CNS
[13] = test system: SF-268 CNS
[14] = test system: RPMI-8226 leukemia
[15] = test system: OVCAR-4 ovarian
[16] = test system: MDA-MB-231 breast
[17] = test system: SK-OV-3 ovarian
[18] = test system: 786-0 renal
[19] = test system: M14 melanoma
[20] = test system: SN12C renal
[21] = test system: MDA-N
[22] = test system: SR leukemia
[23] = test system: SF-295 CNS
[24] = test system: NCI-H23 lung
[25] = test system: A498 renal
[26] = test system: HT29 colon
[27] = test system: IGROV1 ovarian
[28] = test system: OVCAR-8 ovarian
[29] = test system: T-47D breast
[30] = test system: SF-539 CNS
[31] = test system: MALME-3M melanoma
[32] = test system: SW-620 colon
[33] = test system: EKVX NSCLC
[34] = test system: OVCAR-5 ovarian
[35] = test system: UACC-257 melanoma
[36] = test system: HCC-2998 colon
[37] = test system: SK-MEL-28 melanoma
[38] = test system: COLO 205 colon
[39] = test system: KM12 colon
[40] = test system: CCRF-CEM leukemia
[41] = test system: NCI/ADR-RES ovarian
[42] = test system: CAKI-1 renal
[43] = test system: PC-3 prostate
[44] = test system: DU-145 prostate
[45] = test system: HCT-116 colon
[46] = test system: UACC-62 melanoma
[47] = test system: SK-MEL-5 melanoma
[48] = test system: SK-MEL-2 melanoma
[49] = test system: U251 CNS
[50] = test system: HL-60(TB) leukemia
[51] = test system: HCT-15 colon
[52] = test system: ACHN renal
[53] = test system: MDA-MB-435
[54] = test system: HS 578T breast
[55] = test system: NCI-H460 lung
[56] = test system: NCI-H522 lung
[57] = test system: SNB-75 CNS
[58] = test system: RXF 393 renal
[59] = test system: K-562 leukemia

`CC(CCOc1ccc2ccc(=O)oc2c1)C1=CC(=O)C(C)(C)O1` (configuration not stated) was tested, and the TGI [1] was 13.2 µM, the TGI [2] was 13.3 µM and the TGI [3] was 21.3 µM. It also gave a TGI [4] of 14.7 µM, a TGI [5] of 22.5 µM and a TGI [6] of 10.6 µM. For the same molecule, the TGI [7] was 11 µM, the TGI [8] was 6.37 µM and the TGI [9] was 12.1 µM. For the same molecule, the TGI [10] was 11.6 µM, the TGI [11] was over 100 µM and the TGI [12] was 18.2 µM. For the same molecule, the TGI [13] was 5.28 µM, the TGI [14] was 7.31 µM and the TGI [15] was 22.5 µM. The TGI [16] was 12.5 µM, the TGI [17] was 14.2 µM and the TGI [18] was 7.69 µM. The TGI [19] was 26.5 µM, the TGI [20] was 4.09 µM and the TGI [21] was 16.4 µM. It also gave a TGI [22] of 3.42 µM, a TGI [23] of 14.3 µM and a TGI [24] of 11.9 µM. It also gave a TGI [25] of 5.52 µM, a TGI [26] of 10.4 µM and a TGI [27] of 14.8 µM. It also gave a TGI [28] of 4.45 µM, a TGI [29] of 6.06 µM and a TGI [30] of 4.37 µM. It also gave a TGI [31] of 10.8 µM, a TGI [32] of 4.93 µM and a TGI [33] of 15.1 µM. For the same molecule, the TGI [34] was 49.9 µM, the TGI [35] was 20.6 µM and the TGI [36] was 5.71 µM. For the same molecule, the TGI [37] was 12.2 µM, the TGI [38] was 5.97 µM and the TGI [39] was 7.41 µM. It also gave a TGI [40] of 3.18 µM, a TGI [41] of 5.62 µM and a TGI [42] of 8.75 µM. The TGI [43] was 23.5 µM, the TGI [44] was 12.5 µM and the TGI [45] was 10 µM. The TGI [46] was 14.9 µM, the TGI [47] was 24 µM and the TGI [48] was 26.3 µM. For the same molecule, the TGI [49] was 10.3 µM, the TGI [50] was 5.31 µM and the TGI [51] was 5.68 µM. It also gave a TGI [52] of 12.4 µM, a TGI [53] of 11.5 µM and a TGI [54] of 6.84 µM. The TGI [55] was 3.94 µM and the TGI [56] was 3.11 µM.

In the case of `Cc1c(C(=O)O)n2c(C)nnc2c2ccccc12`, the TGI [57] is reported as over 100 µM, the TGI [1] is reported as over 100 µM and the TGI [2] is reported as over 100 µM. The TGI [58] was over 100 µM, the TGI [3] was over 100 µM and the TGI [59] was over 100 µM. For the same molecule, the TGI [4] was over 100 µM, the TGI [5] was over 100 µM and the TGI [6] was over 100 µM. It also gave a TGI [7] of over 100 µM, a TGI [8] of over 100 µM and a TGI [9] of over 100 µM. It also gave a TGI [10] of over 100 µM, a TGI [11] of over 100 µM and a TGI [13] of over 100 µM. It also gave a TGI [15] of over 100 µM, a TGI [16] of over 100 µM and a TGI [17] of over 100 µM. It also gave a TGI [18] of over 100 µM, a TGI [19] of over 100 µM and a TGI [20] of over 100 µM. It also gave a TGI [21] of over 100 µM, a TGI [22] of over 100 µM and a TGI [23] of over 100 µM. It also gave a TGI [24] of over 100 µM, a TGI [25] of over 100 µM and a TGI [26] of over 100 µM. It also gave a TGI [27] of over 100 µM, a TGI [28] of over 100 µM and a TGI [29] of over 100 µM. The TGI [30] was over 100 µM, the TGI [32] was over 100 µM and the TGI [33] was over 100 µM. For the same molecule, the TGI [34] was over 100 µM, the TGI [35] was over 100 µM and the TGI [36] was over 100 µM. The TGI [37] was over 100 µM, the TGI [38] was over 100 µM and the TGI [39] was over 100 µM. It also gave a TGI [40] of over 100 µM, a TGI [41] of over 100 µM and a TGI [42] of over 100 µM. The TGI [43] was over 100 µM, the TGI [44] was over 100 µM and the TGI [45] was over 100 µM. It also gave a TGI [46] of over 100 µM, a TGI [47] of over 100 µM and a TGI [48] of over 100 µM. For the same molecule, the TGI [49] was over 100 µM, the TGI [51] was over 100 µM and the TGI [52] was over 100 µM. It also gave a TGI [53] of over 100 µM, a TGI [54] of over 100 µM and a TGI [55] of over 100 µM. It also gave a TGI [56] of over 100 µM.

In the case of `O=c1c(=O)c2cscc2c1=O`, the TGI [57] is reported as 8.37 µM, the TGI [1] is reported as 11.2 µM and the TGI [2] is reported as 8.04 µM. It also gave a TGI [58] of 9.2 µM, a TGI [3] of 10.8 µM and a TGI [59] of 6.5 µM. The TGI [4] was 15.3 µM, the TGI [5] was 10.5 µM and the TGI [6] was over 25 µM. The TGI [7] was 8.72 µM, the TGI [8] was 10 µM and the TGI [9] was 9.6 µM. The TGI [10] was 15.1 µM, the TGI [11] was 10 µM and the TGI [12] was 15.2 µM. The TGI [13] was 8.82 µM, the TGI [14] was 12.1 µM and the TGI [15] was 11.1 µM. It also gave a TGI [16] of 10 µM, a TGI [17] of over 25 µM and a TGI [18] of 10.1 µM. It also gave a TGI [19] of 8.85 µM, a TGI [20] of 13.3 µM and a TGI [21] of 9.72 µM. It also gave a TGI [22] of 1.1 µM, a TGI [23] of over 25 µM and a TGI [24] of 12.3 µM. For the same molecule, the TGI [25] was over 25 µM, the TGI [26] was 10.6 µM and the TGI [27] was 8.4 µM. The TGI [28] was 16.4 µM, the TGI [29] was 11.8 µM and the TGI [30] was 9.07 µM. It also gave a TGI [31] of 8.39 µM, a TGI [32] of 11.2 µM and a TGI [33] of 10.7 µM. The TGI [34] was 9.61 µM, the TGI [35] was 7.96 µM and the TGI [36] was 6.44 µM. It also gave a TGI [37] of 9.37 µM, a TGI [38] of 8.61 µM and a TGI [39] of 12.7 µM. It also gave a TGI [41] of over 25 µM, a TGI [42] of 8.49 µM and a TGI [43] of 8.6 µM. The TGI [44] was 11.4 µM, the TGI [45] was 9.66 µM and the TGI [46] was 8.75 µM. For the same molecule, the TGI [47] was 7.89 µM, the TGI [48] was 9.31 µM and the TGI [49] was 9.19 µM. It also gave a TGI [51] of 14.1 µM, a TGI [52] of 8.37 µM and a TGI [53] of 9.85 µM. The TGI [54] was over 25 µM and the TGI [55] was 23.3 µM.
